SMILES strings stand for the structures. Structures can show the parent of a compound that is named as a salt.

A word on the IC50: it is the point on the concentration scale where inhibition reaches its midpoint.

The target in one test is Steroidogenic factor 1 (Homo sapiens, UniProt Q13285). The test is described as follows: SF-1 inhibitors in Gal4 reporter counter-screen, dose response, counter-screen for RORA inhibitor project, cell-based, CHO-K1, Gal4-SF-1 LBD, luciferase luminescence (AID 611).
Sequence of Steroidogenic factor 1 (Q13285 whole entry, the tested form may be a part): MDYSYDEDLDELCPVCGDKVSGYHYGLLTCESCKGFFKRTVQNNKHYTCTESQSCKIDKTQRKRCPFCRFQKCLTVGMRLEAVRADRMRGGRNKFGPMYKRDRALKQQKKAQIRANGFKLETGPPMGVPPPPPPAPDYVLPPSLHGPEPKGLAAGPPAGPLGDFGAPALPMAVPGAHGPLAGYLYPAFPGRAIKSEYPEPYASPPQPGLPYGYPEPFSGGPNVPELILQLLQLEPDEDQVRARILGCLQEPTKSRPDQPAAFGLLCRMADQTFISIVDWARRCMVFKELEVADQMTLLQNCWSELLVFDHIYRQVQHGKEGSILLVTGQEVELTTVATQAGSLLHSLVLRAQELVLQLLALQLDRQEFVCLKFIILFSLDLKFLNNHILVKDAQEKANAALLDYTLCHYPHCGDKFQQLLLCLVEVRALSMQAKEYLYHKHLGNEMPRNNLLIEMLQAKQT
Settings: not given
As for `COc1ccc(-c2cc3nc4n(c(=O)c3s2)CCC4)cc1` [2-(4-methoxyphenyl)-6,7-dihydropyrrolo[1,2-a]thieno[3,2-d]pyrimidin-9(5H)-one], the IC50 is above 3.67 µM.
In turn, `CCn1c(C)nc2cc(-c3nc4n(n3)Cc3ccccc3-4)ccc21` [2-(1-ethyl-2-methyl-5-benzimidazolyl)-5H-[1,2,4]triazolo[5,1-a]isoindole] had an IC50 above 0.00503 µM.
Still for that read-out and setting: as for `c1coc(CNc2ncnc3ccccc23)c1` [2-furfuryl(quinazolin-4-yl)amine;hydrochloride], the figure is 17.3 µM.
`Cc1ccc(-c2nc(-c3ccccn3)no2)cc1Cl` [5-(3-chloranyl-4-methyl-phenyl)-3-pyridin-2-yl-1,2,4-oxadiazole] registered an IC50 of 2.22 µM. This IC50 is about 7.8-fold lower than that of the molecule before.
In turn, `CC(C)Cn1c(N)c(C(=O)CSc2ccc3c(c2)OCCO3)c(=O)n(C)c1=O` [6-amino-5-[2-(2,3-dihydro-1,4-benzodioxin-6-ylsulfanyl)acetyl]-3-methyl-1-(2-methylpropyl)pyrimidine-2,4-dione] showed an IC50 of 5.29 µM. This IC50 is about 2.4-fold higher than that of the molecule before.
As to `CCn1nc(-c2ccccc2)nc2c(=O)n(C)c(=O)nc1-2` [1-Ethyl-6-methyl-3-phenyl-1H-pyrimido[5,4-e][1,2,4]triazine-5,7-dione], the IC50 turned out to be 3.72 µM. This IC50 and that of the molecule before are within 1.5-fold of each other.
As to `COc1ccc(C2=Nn3c(nnc3-c3ccccc3OC)SC2)cc1OC` [BMCL181297 Compound 5A], the IC50 is above 3.67 µM.
In turn, `COCCn1c(C)cc(C(=O)CSc2nnc(C)s2)c1C` [1-[1-(2-methoxyethyl)-2,5-dimethyl-1H-pyrrol-3-yl]-2-[(5-methyl-1,3,4-thiadiazol-2-yl)thio]ethanone] gave an IC50 of 3.46 µM.
The same measure, in the same setting: as for `CCOC(=O)c1c(N)sc(C(=O)Nc2ccc3c(c2)OCO3)c1C` [2-amino-5-(1,3-benzodioxol-5-ylcarbamoyl)-4-methyl-thiophene-3-carboxylic acid ethyl ester], the figure is 8.33 µM; as for `COc1ccc(-n2ncc3c(N4CCCCC4)ncnc32)cc1` [1-(4-methoxyphenyl)-4-(1-piperidinyl)pyrazolo[3,4-d]pyrimidine], 2 µM.
For the molecule `C=CS(=O)(=O)c1ccc(Oc2ccc(S(=O)(=O)C=C)cc2)cc1` [1-ethenylsulfonyl-4-(4-ethenylsulfonylphenoxy)benzene], the IC50 amounted to 5.29 µM.
On the same count and under the same terms, for `CCCN1C=CC(=C2C(=O)c3ccccc3C2=O)C=C1` [2-(1-propyl-4-pyridinylidene)indene-1,3-dione] the value was 0.431 µM; for `Cc1ccc(-c2nc(-c3ccccc3)no2)c(Cl)c1` [5-(2-chloranyl-4-methyl-phenyl)-3-phenyl-1,2,4-oxadiazole], 3.34 µM; for `Cc1ccc(-c2cnc(NC(=O)CCC(=O)N3CCCCC3)n2C)cc1` [4-keto-N-[1-methyl-5-(p-tolyl)imidazol-2-yl]-4-piperidino-butyramide], above 99.1 µM.
On to `C=CCOc1nc2c(c(=O)n(C)c(=O)n2C)n1Cc1ccc(Cl)cc1Cl` [7-[(2,4-dichlorophenyl)methyl]-1,3-dimethyl-8-prop-2-enoxy-purine-2,6-dione], for which the IC50 was above 33 µM.
Consider `COc1ccc2c(c1)[nH]c1c(N3CCN(Cc4ccc5c(c4)OCO5)CC3)ncnc12` [4-[4-(1,3-benzodioxol-5-ylmethyl)piperazin-1-yl]-7-methoxy-5H-pyrimido[5,4-b]indole], for which the 50% inhibitory concentration (IC50) came out at 7.25 µM.
The same measure, in the same setting: for `Cc1oc2cc3c(C(=O)OCCN(C)C)c(C)oc3cc2c1C(=O)OCCN(C)C` [2,6-Dimethyl-benzo[1,2-b;4,5-b']difuran-3,7-dicarboxylic acid bis-(2-dimethylamino-ethyl) ester] the value was 0.892 µM; for `Cc1ccc(-c2cn3nc(C)c(C)nc3n2)cc1` [2,3-dimethyl-6-(4-methylphenyl)imidazo[1,2-b][1,2,4]triazine], 4.13 µM; for `CC(=O)c1c(C)[nH]c(C(=O)OCCCCN2C(=O)c3ccccc3C2=O)c1C` [4-acetyl-3,5-dimethyl-1H-pyrrole-2-carboxylic acid 4-(1,3-dioxo-2-isoindolyl)butyl ester], 5.04 µM.
In turn, `C=CCOc1nc2c(c(=O)n(C)c(=O)n2C)n1Cc1ccc(Cl)cc1` [7-[(4-chlorophenyl)methyl]-1,3-dimethyl-8-prop-2-enoxy-purine-2,6-dione] returned an IC50 above 11 µM.
`CN(C)c1ccc(-c2nc3ccccc3n2C)cc1` [MLS000089904] came in with an IC50 of 6.81 µM.
Still for that read-out and setting: for `N#Cc1c(NC(=O)CSc2nc(N)cc(=O)[nH]2)sc2c1CCCCCC2` [2-[(6-amino-4-oxo-1H-pyrimidin-2-yl)sulfanyl]-N-(3-cyano-4,5,6,7,8,9-hexahydrocycloocta[b]thiophen-2-yl)acetamide] the value was 14.6 µM.
Consider `CCCc1ccc(-c2ccc(F)c(N)c2)nc1` [2-fluoranyl-5-(5-propylpyridin-2-yl)aniline], for which the IC50 was 6 µM.
`N#Cc1c(NC(=O)CSc2nc[nH]n2)sc2c1CCCCC2` [N-(3-cyano-5,6,7,8-tetrahydro-4H-cyclohepta[b]thien-2-yl)-2-(1H-1,2,4-triazol-3-ylthio)acetamide] showed an IC50 of 0.237 µM.
`CC1CCc2nc(NC(=O)c3ccco3)sc2C1` (centres undefined) [MLS000063711] gave an IC50 of 3.29 µM. This IC50 is about 14-fold higher than that of the molecule before.
The same measure, in the same setting: for `O=c1c2ccccc2cnn1-c1nc2ccccc2s1` [2-(1,3-benzothiazol-2-yl)-1-phthalazinone] the value was 0.728 µM.
Molecule `CCCCOC(=O)c1[nH]c2c(c1C)C(=O)CC(c1cc(OC)c(OC)c(OC)c1)C2` (centres undefined) returned an IC50 of 6.24 µM.
Same read-out and setting: as for `COc1ccc(C(=O)Nc2ccc(C)cn2)c(OC)c1` [2,4-dimethoxy-N-(5-methylpyridin-2-yl)benzamide], the figure is above 1.22 µM; as for `O=C(O)c1cccc(COc2ccc(CO)cc2Cl)c1` [3-[(2-chloro-4-methylol-phenoxy)methyl]benzoic acid], 0.329 µM; as for `CCOC(=O)N1CCC(NC(=O)C2CCCN(Cc3nc(-c4cccc(Cl)c4)oc3C)C2)CC1` (centres undefined) [4-[[1-[[2-(3-chlorophenyl)-5-methyl-oxazol-4-yl]methyl]nipecotoyl]amino]piperidine-1-carboxylic acid ethyl ester], 6.81 µM.
Same read-out and setting: as for `COc1cccc2c1C(=O)c1c(O)c3c(c(O)c1C2=O)C[C@@](O)(C(=O)CO)C[C@@H]3O[C@H]1C[C@H](N)[C@H](O)[C@H](C)O1` [MLS000028393], the figure is 1.18 µM; as for `O=C(Nc1nc(-c2ccccn2)cs1)c1ccc(Cl)s1` [5-chloranyl-N-(4-pyridin-2-yl-1,3-thiazol-2-yl)thiophene-2-carboxamide], 4 µM; as for `CCCCNc1cc(C)nc(NCc2ccccc2)n1` [2-N-benzyl-4-N-butyl-6-methylpyrimidine-2,4-diamine], 9.37 µM.
`Cc1ccc(N=C2Nc3ccccc3CS2)cc1`: the IC50 is above 11 µM.
For `c1c2c(cc3sc(N4CCOCC4)nc13)OCCO2` [2-(4-morpholinyl)-6,7-dihydro-[1,4]dioxino[2,3-f][1,3]benzothiazole], the IC50 is above 3.67 µM.
For `O=c1cc(N2CCN(c3cccc(Cl)c3)CC2)[nH]c(=O)n1C1CCCCC1` [MLS000094380], the IC50 was found to be 0.44 µM.
In turn, `Cc1ccc(S(=O)(=O)Nc2cccc3ncccc23)s1` [5-methyl-N-quinolin-5-ylthiophene-2-sulfonamide] had an IC50 of 5.33 µM. Against the preceding molecule, the IC50 is about 12-fold higher.
`O=C(NCc1ccco1)c1ccc2nc3sc4c(c3c(=O)n2c1)CCCC4` [MLS000091875] came in with an IC50 above 4.06 µM.
In turn, `c1ccc2nc(-c3nc4ccccc4[nH]3)ccc2c1` [SMR000008748] had an IC50 of 7.19 µM.
As for `CCOC(=O)c1[n-]c2ccccc2c1[N+]#N` [(Z)-(3-diazonio-2-indolylidene)-ethoxymethanolate], the IC50 is 13.2 µM.
The same measure, in the same setting: for `COc1ccc(OC)c(Nc2nc(-c3ccc(O)c(O)c3)cs2)c1` [4-[2-(2,5-Dimethoxy-phenylamino)-thiazol-4-yl]-benzene-1,2-diol] the value was 7.17 µM.
`Cc1cc(N2CCN(c3nc4ccccc4s3)CC2)n2ncnc2n1` [2-[4-(5-methyl-[1,2,4]triazolo[1,5-a]pyrimidin-7-yl)-1-piperazinyl]-1,3-benzothiazole] had an IC50 of 9.02 µM.
In turn, `Cc1cc(C(=O)CN2C(=O)c3ccccc3S2(=O)=O)c(C)n1CC1CCCO1` (centres undefined) [2-[2-[2,5-dimethyl-1-(2-oxolanylmethyl)-3-pyrrolyl]-2-oxoethyl]-1,1-dioxo-1,2-benzothiazol-3-one] yielded an IC50 of 5.61 µM.
On to `c1ccc2c(c1)CCN(c1ncnc3c1[nH]c1ccccc13)C2` [SMR000039631], for which the IC50 was determined as 2.99 µM.
The molecule `O=C(c1ccccc1)C(CCC(CN1CCOCC1)C(=O)c1ccccc1)CN1CCOCC1` (centres undefined) [2,5-bis(4-morpholinylmethyl)-1,6-diphenylhexane-1,6-dione;hydrochloride] returned an IC50 of 18 µM.
With `COc1ccc(CC(=O)Nc2cccc(-c3nnc(-c4cccc(C)c4)o3)c2)cc1OC` [2-(3,4-dimethoxyphenyl)-N-[3-[5-(3-methylphenyl)-1,3,4-oxadiazol-2-yl]phenyl]acetamide], the IC50 is 5.9 µM. Against the preceding molecule, the IC50 is about 3.1-fold lower.
Same read-out and setting: as for `Cc1ccc2[nH]c3c(N4CCCCCC4)ncnc3c2c1` [4-(azepan-1-yl)-8-methyl-5H-pyrimido[5,4-b]indole], the figure is 7.45 µM; as for `Clc1ccc(OCCN2CCN(c3ncnc4sccc34)CC2)cc1` [4-[4-[2-(4-chloranylphenoxy)ethyl]piperazin-1-yl]thieno[2,3-d]pyrimidine], 1.44 µM.
`CC(=O)Nc1ccccc1OCC(=O)c1cc(C)n(Cc2cccs2)c1C` [MLS000056239] had an IC50 of 0.841 µM.
`CC(=O)c1sc(NC(=O)C2(F)C(F)(F)C(F)(F)C(F)(F)C(F)(F)C2(F)F)nc1C` [MLS000040071] gave an IC50 of 6.77 µM. This IC50 lies about 8-fold higher than the previous one.

Still in this test, the particulars now being: inactive by the depositor's call.
With `CC(=O)N1CCc2cc(S(=O)(=O)NCCC3=CCCCC3)ccc21` [1-acetyl-N-(2-cyclohex-1-en-1-ylethyl)indoline-5-sulfonamide], the IC50 was determined as 17.6 µM. In other words, the double-digit micromolar range.
As for `CCCCN(CCCC)S(=O)(=O)c1ccc(C(=O)Nc2nnc(CSC)o2)cc1` [4-(dibutylsulfamoyl)-N-[5-(methylsulfanylmethyl)-1,3,4-oxadiazol-2-yl]benzamide], the IC50 stood at 24.4 µM.
Molecule `Cc1cccc2cc3c(nc12)S/C(=N\CC1CCCO1)N(Cc1ccco1)C3` (centres undefined) [3-(2-furanylmethyl)-9-methyl-N-(2-oxolanylmethyl)-4H-[1,3]thiazino[6,5-b]quinolin-2-imine] came in with an IC50 of 63.7 µM.
For the molecule `CCCOC(=O)c1[nH]c2c(c1C)C(=O)CC(c1cc(OC)c(OC)c(OC)c1)C2` (centres undefined) [MLS000116504], the IC50 worked out at 11.5 µM.

For the origin of these results see BindingDB's records for doi:10.7270/Q2PR7TCX (The Scripps Research Institute Molecular Screening Center, 2007).
